Data as given in US6908945B2, “Ester compound and its use” (Sumitomo Chemical Company, Limited, priority 2002, dated 2005).

Key:
[1] = test system: female common mosquitoes (Culex pipiens pallens); assay: Knock-down test, oil solution sprayed into cubic chamber, common mosquitoes; assay type: in vivo; conditions: 0.7 ml of 0.00625% oil solution sprayed, 70 cm cubic chamber, ten female Culex pipiens pallens, counted for 10 minutes
Source text: A solution of 0.00625 part of the present compound (1R,cis-E) dissolved with 10 parts of dichloromethane was mixed with 89.99375 parts of deodorized kerosene to give a […] oil solution.
(§1) Ten female common mosquitoes (Culex pipiens pallens) were left in a cubic chamber (70 cm at side). Seven-tenths (0.7) ml of the 0.00625% oil solution of the present compound prepared above was sprayed with a spray gun at a pressure of 8.8×10^4 Pa from a small window on the side of the chamber. Then, the number of the knocked-down insects was counted at times for 10 minutes. The time for knocking down half of the tested insects was 1.3 minute.
The same test except that 3-phenoxybenzyl (1R,cis)-3-((E)-2-cyano-1-propenyl)-2,2-dimethylcyclopropanecarboxylate, which is a compound described in Indian Patent No. 152306, was used in place of the present compound was performed for reference. The KT50 value was 8.0 minutes.

[2] = test system: Adult houseflies; assay: Knock-down test, oil solution sprayed into cubic chamber, adult houseflies; assay type: in vivo; conditions: 70 cm cubic chamber, 5 male and 5 female adult houseflies, counted for 10 minutes; for time for knocking down half of the tested insects (KT50): 0.7 ml of 0.00625% oil solution sprayed, two repetitions
Source text: A solution of 0.025 part of the present compound prepared by the production example mentioned above dissolved with 10 parts of dichloromethane was mixed with 89.9975 parts of deodorized kerosene to give a […] oil solution.
as §1, with “Adult houseflies (5 males and 5 females)” for “Ten female common mosquitoes (Culex pipiens pallens)”, “0.025%” for “0.00625%”, “1.0” for “1.3”
A solution of 0.00625 part of the present compound prepared by the production example mentioned above dissolved with 10 parts of dichloromethane was mixed with 89.99375 parts of deodorized kerosene to give a 0.00625% oil solution.
Adult houseflies (5 males and 5 females) were left in a cubic chamber (70 cm at side). Seven-tenths (0.7) ml of the 0.00625% oil solution of the present compound prepared above was sprayed with a spray gun at a pressure of 8.8×10^4 Pa from a small window on the side of the chamber. Then, the number of the knocked-down insects was counted at times for 10 minutes (two repetitions). The time for knocking down half of the tested insects (KT50) was observed. The KT50 value was 1.1 minutes.
The same test except that 4-methoxymethy-2,3,5,6-tetrafluorobenzyl (1R,trans)-3-(2-fluoro-1-propenyl)-2,2-dimethylcyclopropanecarboxylate, which is a compound of Example 12 of WO 99/32426, was used in place of the present compound was performed for reference. The KT50 value was 5.0 minutes.

| Structure (SMILES) | time for knocking down half of the tested insects (KT50) [1] [min] | time for knocking down half of the tested insects (KT50) [2] [min] | time for knocking down half of the tested insects ([2]; 0.7 ml of 0.025% oil solution sprayed) [min] |
| --- | --- | --- | --- |
| C/C(C#N)=C\[C@H]1[C@@H](C(=O)OCc2cccc(Oc3ccccc3)c2)C1(C)C (relative stereo) [3-phenoxybenzyl (1R,cis)-3-((E)-2-cyano-1-propenyl)-2,2-dimethylcyclopropanecarboxylate, reference compound] | 8.0 |  |  |
| COCc1c(F)c(F)c(COC(=O)[C@@H]2[C@H](C=C(C)F)C2(C)C)c(F)c1F (relative stereo) [Example 12 of WO 99/32426, 4-methoxymethy-2,3,5,6-tetrafluorobenzyl (1R,trans)-3-(2-fluoro-1-propenyl)-2,2-dimethylcyclopropanecarboxylate, reference compound] |  | 5.0 |  |
| COCc1c(F)c(F)c(COC(=O)C2C(C=C(C)C#N)C2(C)C)c(F)c1F [present compound (1R,cis-E)] | 1.3 |  |  |
| COCc1c(F)c(F)c(COC(=O)C2C(C=C(C)C#N)C2(C)C)c(F)c1F (centres unmarked) [present compound, 4-methoxymethy-2,3,5,6-tetrafluorobenzyl 3-(2-cyano-1-propenyl)-2,2-dimethylcyclopropanecarboxylate] |  | 1.1 | 1.0 |
